Results from ChEMBL document CHEMBL1201862, “PubChem BioAssay data set” (2004).
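Interpolation was linear, between the two tested concentrations surrounding the appropriate level; five concentrations were tested over 48 hours in 96-well plates. At the GI50, growth is halved.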 Calls of active or inactive are those of the source. Cut-off read from the data, not from the text of the source: active = GI50 up to about 1.1 µM and inactive = higher.

What was measured:
Experiment in all cases: DTP human tumour cell line panel, 48 h
[1] = system: COLO 205
[2] = system: EKVX
[3] = system: HCT-15
[4] = system: HOP-62
[5] = system: HOP-92
[6] = system: Hs-578T
[7] = system: KM12
[8] = system: M14
[9] = system: MCF7
[10] = system: MDA-MB-231
[11] = system: MDA-MB-435
[12] = system: MDA-N
[13] = system: OVCAR-3
[14] = system: OVCAR-8
[15] = system: SF-268
[16] = system: SK-MEL-28
[17] = system: SN12C
[18] = system: SNB-75
[19] = system: MOLT-4
[20] = system: DU-145

Row | Compound | GI50 [1] | GI50 [2] | GI50 [3] | GI50 [4] | GI50 [5] | GI50 [6] | GI50 [7] | GI50 [8] | GI50 [9] | GI50 [10] | GI50 [11] | GI50 [12] | GI50 [13] | GI50 [14] | GI50 [15] | GI50 [16] | GI50 [17] | GI50 [18] | GI50 [19] | GI50 [20]
1 | O=C(O)c1ccc(Cc2ccccc2C(=O)O)cc1 | > 100 µM (inactive) | > 100 µM (inactive) | > 100 µM | > 100 µM (inactive) | > 100 µM (inactive) | > 100 µM (inactive) | > 100 µM (inactive) | > 100 µM (inactive) | > 100 µM (inactive) | > 100 µM (inactive) | > 100 µM (inactive) | > 100 µM (inactive) | > 100 µM (inactive) | > 100 µM (inactive) | > 100 µM (inactive) | > 100 µM (inactive) | > 100 µM (inactive) | 49.5 µM (inactive) | – | –
2 | C/C(CC(=O)Nc1ccc(NC(=O)C/C(C)=N\NC(N)=O)cc1)=N/NC(N)=O | > 50.9 µM (inactive) | > 74.3 µM (inactive) | > 42.3 µM | > 100 µM (inactive) | 71.1 µM (inactive) | – | > 100 µM (inactive) | 65.3 µM (inactive) | – | – | – | – | 49.5 µM (inactive) | > 100 µM (inactive) | > 60 µM (inactive) | > 44.4 µM (inactive) | > 100 µM (inactive) | > 93.5 µM (inactive) | 47.2 µM (inactive) | –
3 | CN(C)CCNC(=O)c1cccc2[nH]c(-c3ccccc3)nc12 | 11.6 µM (inactive) | 23.9 µM (inactive) | 15.8 µM | 22.3 µM (inactive) | 20.3 µM (inactive) | – | 22.4 µM (inactive) | 17.3 µM (inactive) | – | – | – | – | 21.6 µM (inactive) | > 10 µM (inactive) | 18.5 µM (inactive) | 18.3 µM (inactive) | 16.7 µM (inactive) | 37.8 µM (inactive) | 4.91 µM (inactive) | –
4 | Cn1c(=O)cc(Nc2ccc(N)cc2)[nH]c1=O | > 100 µM (inactive) | > 100 µM (inactive) | > 100 µM | > 100 µM (inactive) | > 100 µM (inactive) | > 100 µM (inactive) | > 100 µM (inactive) | > 100 µM (inactive) | 49.4 µM (inactive) | > 100 µM (inactive) | > 100 µM (inactive) | > 100 µM (inactive) | > 100 µM (inactive) | > 100 µM (inactive) | > 100 µM (inactive) | > 100 µM (inactive) | > 100 µM (inactive) | > 100 µM (inactive) | > 100 µM (inactive) | –
5 | Cc1ccc(C(=O)O)c(/C=C2\Cc3cc(C)cc(C)c3C2=O)c1 | – | 66.7 µM (inactive) | 53.1 µM | > 100 µM (inactive) | – | 93.8 µM (inactive) | 65.2 µM (inactive) | – | 69.3 µM (inactive) | 41.3 µM (inactive) | – | 56.5 µM (inactive) | 36 µM (inactive) | 82.2 µM (inactive) | > 100 µM (inactive) | > 100 µM (inactive) | 49.4 µM (inactive) | 63.5 µM (inactive) | 53.2 µM (inactive) | > 100 µM (inactive)
6 | Cc1ccc(S(=O)(=O)NC(=O)NC(C(=O)O)C(C)O)cc1 (stereo not drawn) | > 100 µM (inactive) | – | > 100 µM | > 100 µM (inactive) | > 100 µM (inactive) | > 100 µM (inactive) | > 100 µM (inactive) | > 100 µM (inactive) | > 100 µM (inactive) | > 100 µM (inactive) | – | > 100 µM (inactive) | – | > 100 µM (inactive) | > 100 µM (inactive) | > 100 µM (inactive) | > 100 µM (inactive) | 33.3 µM (inactive) | > 100 µM (inactive) | > 100 µM (inactive)
7 | CCCCCCCC(=O)N1C2CC3CCC2(CS1(=O)=O)C3(C)C (stereo not drawn) | 21.8 µM (inactive) | 37.4 µM (inactive) | 13.1 µM | 20.8 µM (inactive) | 20.6 µM (inactive) | 15.6 µM (inactive) | 26.2 µM (inactive) | 17.5 µM (inactive) | 18.7 µM (inactive) | – | 31.4 µM (inactive) | 26.8 µM (inactive) | > 10 µM (inactive) | 34.1 µM (inactive) | 35.4 µM (inactive) | 14.4 µM (inactive) | 20.9 µM (inactive) | 24.7 µM (inactive) | 17.3 µM (inactive) | 36.6 µM (inactive)
8 | Cc1ccc2nc(N)[nH]c(=O)c2c1Sc1ccncc1 | > 92.9 µM (inactive) | 49.8 µM (inactive) | > 100 µM | 5.11 µM (inactive) | 25.9 µM (inactive) | – | > 51.6 µM (inactive) | 8.63 µM (inactive) | – | – | – | – | > 69.2 µM (inactive) | > 31.1 µM (inactive) | 10.5 µM (inactive) | > 92.3 µM (inactive) | 17.5 µM (inactive) | > 78.9 µM (inactive) | 6.28 µM (inactive) | –
9 | CC(=O)c1cc(CC2Cc3cc4c(cc3C2=O)CCC4)cc2c1CCC2 (stereo not drawn) | 24.8 µM (inactive) | 37.8 µM (inactive) | 44.1 µM | > 100 µM (inactive) | – | 35.5 µM (inactive) | 37.2 µM (inactive) | 69.7 µM (inactive) | 30.8 µM (inactive) | 29.7 µM (inactive) | 32.2 µM (inactive) | – | 90.2 µM (inactive) | 46.8 µM (inactive) | 83.9 µM (inactive) | > 100 µM (inactive) | 47.4 µM (inactive) | 33.3 µM (inactive) | 18.5 µM (inactive) | > 100 µM (inactive)
10 | COC(=O)[C@H](Cc1ccccc1)NC(=O)N1CCCN(C(=O)N[C@@H](Cc2ccccc2)C(=O)OC)CCCN(C(=O)N[C@@H](Cc2ccccc2)C(=O)OC)CCC1 | 18 µM (inactive) | 21.8 µM (inactive) | 27.8 µM | 16.6 µM (inactive) | 16 µM (inactive) | 20.7 µM (inactive) | 28.9 µM (inactive) | 18 µM (inactive) | 18.2 µM (inactive) | – | 20.6 µM (inactive) | 26.1 µM (inactive) | 16.9 µM (inactive) | 20.7 µM (inactive) | 17.5 µM (inactive) | 19.4 µM (inactive) | 19.6 µM (inactive) | 16.1 µM (inactive) | 17.7 µM (inactive) | 18.4 µM (inactive)
11 | CCOC(=O)c1ccc(C(=O)/C(C(C)=O)=C2\CCCN2C)n1C | > 100 µM (inactive) | 18.2 µM (inactive) | 68.7 µM | 57.9 µM (inactive) | – | > 100 µM (inactive) | 29.1 µM (inactive) | > 100 µM (inactive) | 61.7 µM (inactive) | 27.5 µM (inactive) | > 100 µM (inactive) | 86.3 µM (inactive) | 99.8 µM (inactive) | > 100 µM (inactive) | > 100 µM (inactive) | > 100 µM (inactive) | > 100 µM (inactive) | 10.9 µM (inactive) | 23.1 µM (inactive) | > 100 µM (inactive)
12 | CCOC(=O)C1(c2ccccc2)CCC(=O)CC1 | > 100 µM (inactive) | > 100 µM (inactive) | > 100 µM | > 100 µM (inactive) | > 100 µM (inactive) | – | > 100 µM (inactive) | > 100 µM (inactive) | – | – | – | – | > 100 µM (inactive) | > 100 µM (inactive) | > 100 µM (inactive) | > 100 µM (inactive) | > 100 µM (inactive) | > 100 µM (inactive) | > 100 µM (inactive) | –
13 | FC(F)(Sc1ccccc1)c1nc2ccccc2o1 | > 100 µM (inactive) | – | 22 µM | > 100 µM (inactive) | 12.5 µM (inactive) | – | 57 µM (inactive) | 68.9 µM (inactive) | 35.2 µM (inactive) | > 100 µM (inactive) | 95.3 µM (inactive) | 82.6 µM (inactive) | 34.4 µM (inactive) | 83.4 µM (inactive) | > 100 µM (inactive) | > 100 µM (inactive) | 74.5 µM (inactive) | – | 13.8 µM (inactive) | 67.8 µM (inactive)
14 | O=C1C2=Cc3ccccc3OC2(O)Oc2cc(O)cc(O)c21 (stereo not drawn) | > 100 µM (inactive) | > 100 µM (inactive) | > 10 µM | > 100 µM (inactive) | > 100 µM (inactive) | – | > 100 µM (inactive) | > 100 µM (inactive) | > 100 µM (inactive) | > 100 µM (inactive) | > 100 µM (inactive) | > 100 µM (inactive) | > 10 µM (inactive) | > 100 µM (inactive) | > 100 µM (inactive) | > 100 µM (inactive) | > 100 µM (inactive) | > 100 µM (inactive) | > 100 µM (inactive) | > 100 µM (inactive)
15 | COC(=O)C/N=C1\NC(=S)N(Cc2ccc(OC)cc2)C12CCCC2 | > 100 µM (inactive) | > 100 µM (inactive) | > 100 µM | > 100 µM (inactive) | > 100 µM (inactive) | – | > 100 µM (inactive) | > 100 µM (inactive) | > 100 µM (inactive) | > 100 µM (inactive) | > 100 µM (inactive) | > 100 µM (inactive) | > 100 µM (inactive) | > 100 µM (inactive) | > 100 µM (inactive) | > 100 µM (inactive) | > 100 µM (inactive) | > 100 µM (inactive) | > 100 µM (inactive) | > 100 µM (inactive)
16 | CC1CC(c2ccccc2)Nc2nc3ccccc3n21 (stereo not drawn) | > 100 µM (inactive) | > 100 µM (inactive) | > 100 µM | > 100 µM (inactive) | > 100 µM (inactive) | > 100 µM (inactive) | > 100 µM (inactive) | > 100 µM (inactive) | > 100 µM (inactive) | > 100 µM (inactive) | > 100 µM (inactive) | > 100 µM (inactive) | > 100 µM (inactive) | > 100 µM (inactive) | > 100 µM (inactive) | > 100 µM (inactive) | – | > 100 µM (inactive) | > 100 µM (inactive) | –
17 | N#C/C(=C\c1ccc(O)c(O)c1)C(N)=S [TYRPHOSTIN 47] | 56 µM (inactive) | > 100 µM (inactive) | 53.5 µM | > 100 µM (inactive) | > 58.3 µM (inactive) | – | 68.2 µM (inactive) | > 100 µM (inactive) | – | – | – | – | 38.7 µM (inactive) | > 100 µM (inactive) | 66.1 µM (inactive) | > 84.7 µM (inactive) | > 100 µM (inactive) | 7.36 µM (inactive) | 32.7 µM (inactive) | –
